Several values for one entry are separate records, joined by “and”; a condition that tells them apart may be missing. Equal values may be shown once. Entries after “also recorded” stand apart in the source; their conditions may differ.
Assays:
[1] = test system: Vascular smooth muscle (BO54) cells; format: cell-based, baboon
[2] = test system: balloon traumatized rabbit carotid artery; format: in vivo; settings: rabbit, in vivo
[3] = test system: left carotid artery; experiment: Periadventitial delivery of crystals in pluronic gel after balloon trauma; format: in vivo, rats
Description: To further evaluate the efficacy of crystalline taxol to inhibit neointimal formation in rats, four groups of 5-6 adult male rats underwent balloon trauma of the left carotid artery followed immediately by periadventitial delivery of 1, 0.1,0.01 or 0 mg of taxol crystals in 500 mg of a pluronic polymer in gel matrix. Fourteen days later, the rats were sacrificed, serum was collected and their carotid arteries were processed for histologic and morphometric analysis.

[4] = test system: left carotid artery; settings: rat, in vivo
[5] = Biodistribution of ^3H-cytochalasin B i.v.; format: in vivo, BALB/c mice
Description: (§1) ^3H-cytochalasin B (2 µg; 30 µCi/µg) was injected i.v. into BALB/c mice having urinary bladders that had been externally ligated. Animals were sacrificed at 15 minutes, 30 minutes, 2 hours or 16 hours post-injection. Organs were removed, blotted, weighed, air dried and assayed for radioactivity. Fifty - 73% of the total injected dose was accounted for in the tissues sampled (blood, heart, brain, muscle, bone, lung, liver, spleen, stomach, kidney, intestines, and urinary bladder). Clearance of ^3H-cytochalasin B from the blood was extremely rapid with less than 1% of the injected dose in circulation by 15 minutes. […] Cytochalasin B Metabolism. ^3H-cytochalasin B at a dose of 1.5 or 8 µg/ml was mixed with viable or non-viable human liver slices and media, and the amount of ^3H-cytochalasin B in media or tissue assessed by HPLC (Tables 8 and 9).

[6] = Human liver slices distribution and metabolism study (HPLC); format: in vitro ADME; settings: for % Activity in Media / % Activity in Tissue: 37°C
Description: as §1

[7] = MTT activity in human liver slices after 24 hour exposure; format: cell-based; settings: for MTT Absorbance: 24 hours, mean +/- standard deviation of triplicate liver samples
Description: The cytotoxity of ^3H-cytochalasin B and its subsequent metabolites was also assessed by evaluating dose dependent changes in mitochondrial function by monitoring 3-[4, 5-dimethylthiazol-2yl]-2, 5-diphenyltetrazolium bromide (MTT) activity following a 24 hour exposure of human liver slices to the test agent (Table 10).

[8] = Tissue distribution after intravascular delivery of crystals; format: in vivo, swine; settings: 10 µg/ml crystals in saline (saturated), three minutes under 1 atm
Description: The in vivo tissue distribution of cytochalasin B administered in crystalline form was evaluated in balloon traumatized swine femoral arteries after local delivery. A femoral artery of a Yorkshire crossbred swine was balloon traumatized by overinflation and rotation of a Vascu-Flo™ Silicone embolectomy catheter. Balloon trauma was immediately followed by intravascular delivery of 10 µg/ml ^3H-cytochalasin B crystals (Sigma Chemical Co., St. Louis, MO) in saline (saturated) for three minutes under 1 atm of pressure. Blood flow was resumed in the artery for five minutes prior to sacrifice of the animal.

[9] = 1.5 µg/ml, Media/viable tissue, 1/4/24 Hours = r5/r6/r7
[10] = 1.5 µg/ml, Media/viable tissue, 1/4/24 Hours = r2/r3/r4
[11] = 8 µg/ml, Media/boiled tissue, 1/4/24 Hours = r8/r9/r10
[12] = 8 µg/ml, Media/viable tissue, 1/4/24 Hours = r2/r3/r4
[13] = 8 µg/ml, Media/viable tissue, 1/4/24 Hours = r5/r6/r7

CC(=O)O[C@@H]1/C=C\[C@@](C)(O)C(=O)[C@@H](C)C/C=C\[C@H]2[C@H](O)C(C)=C(C)[C@H]3C(Cc4ccccc4)NC(=O)[C@]132 (stereo partly drawn) [cytochalasin C]
minimum effective dose (MED), DNA synthesis assay [1]: 0.01 µg/mL

O=[N+]([O-])OCC(CO[N+](=O)[O-])O[N+](=O)[O-] [nitroglycerin]
therapeutic range (area under the curve of ^3H-leucine assay greater than ^3H-thymidine assay) [1]: available therapeutic range

CN[C@@H]1C[C@H]2O[C@@](C)([C@@H]1OC)n1c3ccccc3c3c4c(c5c6ccccc6n2c5c31)C(=O)NC4 [staurosporin]
therapeutic range (area under the curve of ^3H-leucine assay greater than ^3H-thymidine assay) [1]: available therapeutic range

Cc1ccc(C(=O)Nc2ccc(S(=O)(=O)O)c3cc(S(=O)(=O)O)cc(S(=O)(=O)O)c23)cc1NC(=O)c1cccc(NC(=O)Nc2cccc(C(=O)Nc3cc(C(=O)Nc4ccc(S(=O)(=O)O)c5cc(S(=O)(=O)O)cc(S(=O)(=O)O)c45)ccc3C)c2)c1 [suramin]
therapeutic range (area under the curve of ^3H-leucine assay greater than ^3H-thymidine assay) [1]: available therapeutic range

CC(=O)O[C@H]1C(=O)[C@@]2(C)[C@H]([C@H](OC(=O)c3ccccc3)[C@]3(O)C[C@H](OC(=O)[C@H](O)[C@@H](NC(=O)c4ccccc4)c4ccccc4)C(C)=C1C3(C)C)[C@]1(OC(C)=O)CO[C@@H]1C[C@@H]2O [taxol]
intimal proliferation [2]: no intimal or adventitial proliferation; also recorded: no intimal proliferation; also recorded: only minimal intimal proliferation | myonecrosis of the adjacent skeletal muscle (animals) ([3]; 0.01 mg crystals in 500 mg pluronic gel): 0/4 | myonecrosis of the adjacent skeletal muscle (animals) ([3]; 0.1 mg crystals in 500 mg pluronic gel): 1/5 | myonecrosis of the adjacent skeletal muscle (animals) ([3]; 1 mg crystals in 500 mg pluronic gel): 3/3 | neointimal area less than that of control animals ([3]; 1 mg crystals in 500 mg pluronic gel, too few animals for statistics): 38% | neointimal area and neointimal/medial ratio compared to control animals ([3]; 0.1 and 0.01 mg, did not reach statistical significance): a reduction in their neointimal area and neointimal/medial ratio was observed | toxicity by dose group ([3]; crystals in pluronic gel): no (0.01 mg), minimal (0.1 mg) or limited (1.0 mg) toxicity | morphometry compared to untreated control animals [4]: statistically significantly larger luminal areas and no neointimal proliferation | toxicity at the surgical site [4]: significant toxicity at the surgical site

^3H-cytochalasin B
^3H activity in all tissues ([5]; by 16 hours): below 1.5 % injected dose per gram of tissue | retention of ^3H activity ([5]; mouse, in vivo): Only liver, skeletal muscle and intestines showed significant retention | % Extractable Activity [6, 9]: 99.5% and 99.4% and 99.6% | %Non extractable Activity [6, 9]: 0.5% and 0.6% and 0.4% | % Activity in Media [6, 10]: 84% and 91% | % Activity in Tissue [6, 10]: 16% and 9% | % Metabolized of Extractable Activity ([6]; 8 µg/ml, Media Only, 1/4/24 Hours = r11/r12/r13): 5% and 4% | % Extractable Activity [6, 11]: 98.7% and 99.5% and 99.0% | % Metabolized of Extractable Activity [6, 11]: 5% | %Non extractable Activity [6, 11]: 1.3% and 0.5% and 1% | % Activity in Media [6, 11]: 87% and 83% | % Activity in Tissue [6, 11]: 13% and 17% | % Extractable Activity [6, 12]: 99.5% and 99.0% and 98.7% | %Non extractable Activity [6, 12]: 0.5% and 1% and 1.3% | % Activity in Media [6, 13]: 88% and 84% and 89% | % Activity in Tissue [6, 13]: 12% and 16% and 11% | metabolized ([6]; within 24 hours): 98% | MTT Absorbance ([7]; 0.1 µg/ml): 0.844 +/- 0.014 | MTT Absorbance ([7]; 1.5 µg/ml): 0.841 +/- 0.081 | MTT Absorbance ([7]; 8.0 µg/ml): 0.850 +/- 0.082 | cytotoxicity of ^3H-cytochalasin B or its subsequent metabolites ([7]; 24 hour exposure): not cytotoxic | amount delivered [8]: 31 µg | tissue distribution [8]: localized predominantly to the adventitia

Reference: patent EP2292225A1 (priority 1997, dated 1998)
